Values after ≈ are worked out from the molar mass of the structure shown.
Assays:
Type in all cases: cell-based
[1] = tested on: Pseudomonas aeruginosa PAM 1020; assay: MIC broth microdilution, P. aeruginosa PAM 1020 (wild type); settings: P. aeruginosa PAM 1020
[2] = tested on: Pseudomonas aeruginosa PAM 1154; assay: MIC broth microdilution, P. aeruginosa PAM 1154 (OprM::Hg); settings: P. aeruginosa PAM 1154 OprM::Hg
[3] = tested on: Pseudomonas aeruginosa PAM 1135; assay: MIC broth microdilution, P. aeruginosa PAM 1135 (high level UPA resistance); settings: P. aeruginosa PAM 1135 UPA1^r
[4] = tested on: Pseudomonas aeruginosa PAM 1323; assay: MIC broth microdilution, P. aeruginosa PAM 1323 (medium level UPA resistance)
Escherichia Coli MC 4100 = assay: MIC broth microdilution, E. coli MC 4100 (wild type); settings: E. coli MC 4100
[5] = tested on: Escherichia Coli MC 4100 AcrAB; assay: MIC broth microdilution, E. coli MC 4100 AcrAB (ΔAcrAB); settings: E. coli AcrAB
[6] = tested on: Escherichia Coli MC 4100 AcrAB UPA3r; assay: MIC broth microdilution, E. coli MC 4100 AcrAB UPA3r (ΔAcrAB, UPA resistant); settings: E. coli AcrAB UPA3^r
[7] = tested on: Staphylococcus aureus ATCC 29213; assay: MIC broth microdilution, S. aureus ATCC 29213 (wild type); settings: S. aureus ATCC 29213
[8] = tested on: Staphylococcus aureus 8325-4; assay: MIC broth microdilution, S. aureus 8325-4 (wild type); settings: S. aureus 8325-4
[9] = tested on: Pasteurella multocida pm002; assay: MIC broth microdilution, P. multocida pm002 (wild type)

| Compound | MIC (μg/ml) Broth microdilution [1] [µg/mL] | MIC (μg/ml) Broth microdilution [2] [µg/mL] | MIC (μg/ml) Broth microdilution [3] [µg/mL] | MIC (μg/ml) Broth microdilution [4] [µg/mL] | MIC (μg/ml) Broth microdilution (Escherichia Coli MC 4100) [µg/mL] | MIC (μg/ml) Broth microdilution [5] [µg/mL] | MIC (μg/ml) Broth microdilution [6] [µg/mL] | MIC (μg/ml) Broth microdilution [7] [µg/mL] | MIC (μg/ml) Broth microdilution [8] [µg/mL] | MIC (μg/ml) Broth microdilution [9] [µg/mL] |
| --- | --- | --- | --- | --- | --- | --- | --- | --- | --- | --- |
| C[C@H](N)C(=O)N(C)[C@@H](C)[C@H](NC(=O)[C@H](Cc1ccccc1F)NC(=O)N[C@@H](Cc1c[nH]c2ccccc12)C(=O)O)C(=O)NC[C@H]1C[C@@H](O)[C@H](n2ccc(=O)[nH]c2=O)O1 [Compound 139, 1-[5′-[(2S,3S)-N^3-L-Alanyl-N^2-[N-[[(1S)-1-carboxy-2-indol-3-ylethyl]carbamoyl]-L-2-fluorophenylalanyl]-N^3-methyl-2,3-diaminobutyramido]-3′,5′-dideoxy-α-L-arabinofuranosyl]uracil] | 64 (≈ 79.2 µM) | 8 (≈ 9.9 µM) | >512 | 512 (≈ 634 µM) | >512 | 2 (≈ 2.48 µM) | 64 (≈ 79.2 µM) | 256 (≈ 317 µM) | 256 (≈ 317 µM) | 256 (≈ 317 µM) |
| C[C@H](N)C(=O)N(C)[C@@H](C)[C@H](NC(=O)[C@H](Cc1ccccc1F)NC(=O)N[C@@H](Cc1ccc(O)cc1)C(=O)O)C(=O)NC[C@H]1C[C@@H](O)[C@H](n2ccc(=O)[nH]c2=O)O1 [Compound 140, 1-[5′-[(2S,3S)-N^3-L-Alanyl-N^2-[N-[[(1S)-1-carboxy-4-hydroxyphenethyl]carbamoyl]-L-2-fluorophenylalanyl]-N^3-methyl-2,3-diaminobutyramido]-3′,5′-dideoxy-α-L-arabinofuranosyl]uracil] | 64 (≈ 81.5 µM) | 4 (≈ 5.1 µM) | >512 | 512 (≈ 652 µM) | 64 (≈ 81.5 µM) | <1 | 8 (≈ 10.2 µM) | 512 (≈ 652 µM) | 512 (≈ 652 µM) | >512 |
| C[C@H](N)C(=O)N(C)[C@@H](C)[C@H](NC(=O)[C@H](Cc1ccc(F)c(F)c1)NC(=O)N[C@@H](Cc1c[nH]c2ccccc12)C(=O)O)C(=O)NC[C@H]1C[C@@H](O)[C@H](n2ccc(=O)[nH]c2=O)O1 [Compound 143, 1-[5′-[(2S,3S)-N^3-L-Alanyl-N^2-[N-[[(1S)-1-carboxy-2-indol-3-ylethyl]carbamoyl]-L-(3,4)-difluorophenylalanyl]-N^3-methyl-2,3-diaminobutyramido]-3′,5′-dideoxy-α-L-arabinofuranosyl]uracil] | 128 (≈ 155 µM) | 16 (≈ 19.4 µM) | >512 | >512 | 256 (≈ 310 µM) | <1 | 16 (≈ 19.4 µM) | 512 (≈ 620 µM) | 256 (≈ 310 µM) | 128 (≈ 155 µM) |
| C[C@H](N)C(=O)N(C)[C@@H](C)[C@H](NC(=O)[C@H](Cc1ccc(F)c(F)c1)NC(=O)N[C@@H](Cc1ccc(O)cc1)C(=O)O)C(=O)NC[C@H]1C[C@@H](O)[C@H](n2ccc(=O)[nH]c2=O)O1 [Compound 144, 1-[5′-[(2S,3S)-N^3-L-Alanyl-N^2-[N-[[(1S)-1-carboxy-4-hydroxyphenethyl]carbamoyl]-L-(3,4)-difluorophenylalanyl]-N^3-methyl-2,3-diaminobutyramido)-3′,5′-dideoxy-α-L-arabinofuranosyl]uracil] | 64 (≈ 79.7 µM) | 8 (≈ 9.97 µM) | >512 | >512 | 4 (≈ 4.98 µM) | <1 | <1 | >512 | 512 (≈ 638 µM) | 256 (≈ 319 µM) |
| C[C@H](N)C(=O)N(C)[C@@H](C)[C@H](NC(=O)[C@H](Cc1ccc(C(F)(F)F)cc1)NC(=O)N[C@@H](Cc1ccc(O)cc1)C(=O)O)C(=O)NC[C@H]1C[C@@H](O)[C@H](n2ccc(=O)[nH]c2=O)O1 [Compound 145, 1-[5′-[(2S,3S)-N^3-L-Alanyl-N^2-[N-[[(1S)-1-carboxy-4-hydroxyphenethyl]carbamoyl]-L-4-(trifluoromethyl)phenylalanyl]-N^3-methyl-2,3-diaminobutyramido]-3′,5′-dideoxy-α-L-arabinofuranosyl]uracil] | 256 (≈ 307 µM) | 32 (≈ 38.3 µM) | >512 | >512 | 512 (≈ 613 µM) | 4 (≈ 4.79 µM) | 128 (≈ 153 µM) | >512 | >512 | 512 (≈ 613 µM) |
| CC(N)C(=O)N(C)C(C)C(NC(=O)C(CCCCN)NC(=O)NC(Cc1c[nH]c2ccccc12)C(=O)O)C(=O)NCC1CC(O)C(n2ccc(=O)[nH]c2=O)O1 [Compound 148, 1-[5′-[(2S,3S)-N^3-L-Alanyl-N^2-[N-[[(1S)-1-carboxy-2-indol-3-ylethyl]carbamoyl]-L-lysinyl]-N^3-methyl-2,3-diaminobutyramido]-3′,5′-dideoxy-α-L-arabinofuranosyl]uracil] | 128 (≈ 166 µM) | 8 (≈ 10.4 µM) | >512 | >512 | >512 | >512 | >512 | >512 | >512 | >512 |
| C[C@H](N)C(=O)N(C)[C@@H](C)[C@H](NC(=O)[C@H](Cc1ccccc1)NC(=O)N[C@@H](Cc1c[nH]cn1)C(=O)O)C(=O)NC[C@H]1C[C@@H](O)[C@H](n2ccc(=O)[nH]c2=O)O1 [Compound 149] | 512 (≈ 691 µM) | 8 (≈ 10.8 µM) | >512 | >512 | 512 (≈ 691 µM) | 16 (≈ 21.6 µM) | 64 (≈ 86.4 µM) | >512 | >512 | 256 (≈ 346 µM) |
| C[C@@H]([C@H](NC(=O)[C@H](Cc1ccccc1)NC(=O)N[C@@H](Cc1ccc(O)cc1)C(=O)O)C(=O)NC[C@H]1C[C@@H](O)[C@H](n2ccc(=O)[nH]c2=O)O1)N(C)C(=O)[C@@H](N)COCc1ccccc1 [Compound 150, 1-[5′-[(2S,3S)-N^3-(L-O-Benzylserinyl)-N^2-[N-[[(1S)-1-carboxy-4-hydroxyphenethyl]carbamoyl]-L-phenylalanyl]-N^3-methyl-2,3-diaminobutyramido]-3′,5′-dideoxy-α-L-arabinofuranosyl]uracil] | 256 (≈ 293 µM) | 64 (≈ 73.3 µM) | 256 (≈ 293 µM) | 256 (≈ 293 µM) | 512 (≈ 587 µM) | 8 (≈ 9.16 µM) | 512 (≈ 587 µM) | >512 | >512 | 512 (≈ 587 µM) |
| CN[C@@H](C)[C@H](NC(=O)[C@H](Cc1ccccc1)NC(=O)N[C@@H](Cc1c[nH]c2ccccc12)C(=O)O)C(=O)NC[C@H]1C[C@@H](O)[C@H](n2ccc(=O)[nH]c2=O)O1 [Compound 151, 1-[5′-[(2S,3S)-N^2-[N-[[(1S)-1-Carboxy-2-indol-3-ylethyl]carbamoyl]-L-phenylalanyl]-N^3-methyl-2,3-diaminobutyramido]-3′,5′-dideoxy-α-L-arabinofuranosyl]uracil] | 256 (≈ 356 µM) | 32 (≈ 44.5 µM) | 256 (≈ 356 µM) | 256 (≈ 356 µM) | 512 (≈ 712 µM) | 4 (≈ 5.57 µM) | 128 (≈ 178 µM) | >512 | >512 | 256 (≈ 356 µM) |
| C[C@H](N)C(=O)N(C)[C@@H](C)[C@H](NC(=O)[C@H](Cc1ccc2ccccc2c1)NC(=O)N[C@@H](Cc1ccc(O)cc1)C(=O)O)C(=O)NC[C@H]1C[C@@H](O)[C@H](n2ccc(=O)[nH]c2=O)O1 [Compound 152, 1-[5′-[(2S,3S)-N^3-L-Alanyl-N^2-[N-[[(1S)-1-carboxy-4-hydroxyphenethyl)carbamoyl]-L-3-(2-naphthyl)alanyl]-N^3-methyl-2,3-diaminobutyramido]-3′,5′-dideoxy-α-L-arabinofuranosyl]uracil] | 256 (≈ 313 µM) | 64 (≈ 78.3 µM) | >512 | >512 | 256 (≈ 313 µM) | 2 (≈ 2.45 µM) | 64 (≈ 78.3 µM) | >512 | >512 | >512 |
